Laboratory results taken from patent US8673914B2, “Use of phosphodiesterase inhibitors for treating multidrug resistance” (St. John's University, priority 2011, dated 2014).
Marks after values point to notes of the source that are not given here.

Tests used:
S1/FLV5000 = assay: cells; format: cell-based; conditions: S1/FLV5000, alone
Description: (§1) The ABCB1-overexpressing drug resistant cell line KB-V1 (generously provided by Dr. Gottesman, NCI, NIH) was established by a stepwise concentration increase of vinblastine in the culture medium of KB-3-1 cells and subsequently culturing these cells in medium with 1 μg/mL of vinblastine. An ABCC1-overexpressing MDR cell line, KB-CV60, was also derived from KB-3-1 cells and was maintained in medium with 1 μg/mL of cepharanthine and 60 ng/mL of vincristine. Both KB-C2 and KB-CV60 cell lines were kindly provided by Dr. Akiyama (Kagoshima University, Japan). HEK293/pcDNA3.1, ABCG2-482-R5, ABCG2-482-G2, and ABCG2-482-T7 cells were established by selection with 2 mg/mL G418 after transfecting HEK293 with either (1) empty pcDNA3.1 vector or (2) pcDNA3.1 vector containing full length ABCG2 coding either (2a) wild-type arginine (R) or mutant (2b) glycine (G) or (2c) threonine (T) at amino acid position 482, respectively. The wild-type ABCG2-overexpressing drug-resistant cell line MCF-7/Flv1000 was cultured in the medium with 1 μM of flavopiridol. […] Another G482 mutant ABCG2-overexpressing drug resistant cell line, S1-M1-80, was maintained in the medium with 80 μM of mitoxantrone. […] All the cell lines were grown as adherent monolayers in flasks with DMEM (Dulbecco's modified Eagle's medium) culture medium (Hyclone Co.) containing 10% bovine serum at 37° C. in a humidified atmosphere of 5% CO2.
(§2) Cells in 96-well plates were preincubated with or without the reversal agents for 1 h and then different concentrations of chemotherapeutic drugs were added into designated wells. After 68 h of incubation, MTT solution (4 mg/mL) was added to each well, and the plate was further incubated for 4 h, allowing viable cells to change the yellow-colored MTT into dark-blue formazan crystals. Subsequently the medium was discarded, and […] of DMSO was added into each well to dissolve the formazan crystals. The absorbance was determined at 570 nm by an OPSYS MR Microplate Reader from DYNEX Technologies, Inc.

S1-M1-80 = assay: MTT cytotoxicity/reversal assay (Example 2); format: cell-based; conditions: alone
Description: as §1, §2

MCF-7/Flv1000 = assay: MTT cytotoxicity/reversal assay (Example 2); format: cell-based
Description: as §1, §2

MCF7/ADVP3000 = assay: MTT cytotoxicity/reversal assay (Example 2); format: cell-based; conditions: alone
Description: as §1, §2

HEK293/pcDNA3 = assay: MTT cytotoxicity/reversal assay (Example 2); format: cell-based; conditions: alone
Description: as §1, §2

MCF-7 = assay: MTT cytotoxicity/reversal assay (Example 2); format: cell-based
Description: as §1, §2

S1 = assay: MTT cytotoxicity/reversal assay (Example 2); format: cell-based; conditions: alone
Description: as §1, §2

HEK/ABCG2-G2 = assay: MTT cytotoxicity/reversal assay (Example 2)
Description: as §1, §2

HEK/ABCG2-T7 = assay: MTT cytotoxicity/reversal assay (Example 2)
Description: as §1, §2

HEK/ABCG2-R5 = assay: MTT cytotoxicity/reversal assay (Example 2)
Description: as §1, §2

[1] = MTT cytotoxicity assay (Example 4); format: cell-based; conditions: human; HEK/MRP7; alone; read-out: IC50 of docetaxel;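 on fold-resistance, docetaxel: drug IC50 in HEK/MRP7 divided by IC50 in parental HEK293-pcDNA3.1 cells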
Description: (§3) The MRP7 cDNA was generously provided by Dr. Gary Kruh (University of Illinois, Chicago, Ill.) and inserted into the pcDNA3.1 expression vector. […] Individual colonies were selected in medium containing G418 (1 mg/ml) and cultured for further analysis.
(§4) MTT colorimetric assay was performed to analyze the drug sensitivity as previously described (Shi et al. (2007) Cancer Res. 67:11012-20). HEK293-pcDNA3.1 and HEK/MRP7 cells were seeded into 96-well plates in triplicate at 6000 cells/well.
(§5) After drug incubation of 68 h, 20 μl MTT solution (4 mg/ml) was added into each well. […] The Bliss method was used to calculate the IC50 values according to survival curves.

HEK/MRP7 = assay: MTT cytotoxicity assay (Example 4); format: cell-based; conditions: alone;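 on fold-resistance, docetaxel: drug IC50 in HEK/MRP7 divided by IC50 in parental HEK293-pcDNA3.1 cells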
Description: as §3, §4, §5

HEK 293-pcDNA-3.1 = assay: MTT cytotoxicity assay (Example 4); format: cell-based
Description: as §3, §4, §5

HEK/MRP1 (ABCC1) = assay: MTT cytotoxicity/reversal assay (Example 1); format: cell-based; conditions: +10 μM reversal agent
Description: The KB-C2 and KB-3-1 were kindly provided by Dr. Akiyama (Kagoshima University, Japan). […] Similarly, the HEK/MRP1 (ABCC1) and HEK/ABCB1 cells were generated by transfecting the HEK293 cells with either the MRP1 expression vector or the ABCB1 expression vector. All of the cell lines were grown in Dulbecco's modified Eagle's medium (DMEM) supplemented with 10% bovine serum, 100 units/ml penicillin, and […] streptomycin in a humidified incubator containing 5% CO2 at 37° C.
(§6) The MTT assay was used to assess cytotoxicity. The cultured cells were harvested with trypsin and resuspended in a final concentration of 4×10^3 cells/well for KB-3-1; 7.5×10^3 cells/well for KB-C2; and 8×10^3 for all of the other cell lines used in this study. Cells were seeded evenly in 96-well multiplates. […] After 68 h of incubation, 20 μl of the MTT solution (4 mg/ml) was added to each well, and the plate was further incubated for 4 h at 37° C., allowing viable cells to convert the yellow-colored MTT into dark-blue formazan crystals. Subsequently, the medium was discarded, and 100 μl of DMSO was added into each well to dissolve the formazan crystals, generating purple color. The absorbance was determined at 570 nm by an OPSYS Microplate Reader from DYNEX Technologies, Inc. (Chantilly, Va.). […] The degree of the reversal of multidrug resistance (MDR) was calculated by dividing the IC50 of an anticancer drug, e.g., an antineoplastic or chemotherapeutic drug (agent, compound), in a cell type in the absence of a reversal agent by the IC50 of the anticancer drug in the same cell type in the presence of the reversal agent. The IC50 values were calculated from survival curves using the Bliss method.

HEK293/pcDNA3.1 = assay: MTT cytotoxicity/reversal assay (Example 1); format: cell-based; conditions: HEK293/pcDNA3.1 (Table 6); +10 μM reversal agent
Description: The KB-C2 and KB-3-1 were kindly provided by Dr. Akiyama (Kagoshima University, Japan). HEK293-pcDNA3.1 and wild-type HEK/ABCG2 transfected cells were established by selection with G418 after transfecting HEK293 with either (1) empty pcDNA3.1 vector or (2) pcDNA3.1 vector containing full length of ABCG2 coding arginine (R) at amino acid position 482, and were then cultured in a medium with 2 mg/ml of G418 (ABCG2-482-R2 cells). Similarly, the HEK/MRP1 (ABCC1) and HEK/ABCB1 cells were generated by transfecting the HEK293 cells with either the MRP1 expression vector or the ABCB1 expression vector. All of the cell lines were grown in Dulbecco's modified Eagle's medium (DMEM) supplemented with 10% bovine serum, 100 units/ml penicillin, and […] streptomycin in a humidified incubator containing 5% CO2 at 37° C.
as §6

[2] = Homo sapiens, read-out: IC50 of flavopiridol

## CN1CC[C@H](c2c(O)cc(O)c3c(=O)cc(-c4ccccc4Cl)oc23)[C@H](O)C1 [Flavopiridol, flavopiridol]
S1/FLV5000
  fold-resistance, flavopiridol: (64.9)
S1/FLV5000; read-out: IC50 of flavopiridol
  IC50: 6200 ± 463 nM
S1-M1-80; [2]
  IC50: 699 ± 47 nM
S1-M1-80
  fold-resistance, flavopiridol: (7.3)
MCF-7/Flv1000; MCF-7/Flv1000, alone
  fold-resistance, flavopiridol: (19.9)
MCF-7/Flv1000; MCF-7 FLV1000, read-out: IC50 of flavopiridol
  IC50: 6860 ± 479 nM
MCF7/ADVP3000; [2]
  IC50: 3900 ± 414 nM
MCF7/ADVP3000
  fold-resistance, flavopiridol: (11.3)
HEK293/pcDNA3; [2]
  IC50: 164 ± 17.1 nM
HEK293/pcDNA3
  fold-resistance, flavopiridol: (1.0)^c
MCF-7; Homo sapiens, MCF7, alone, read-out: IC50 of flavopiridol
  IC50: 344.3 ± 2.1 nM
MCF-7; alone
  fold-resistance, flavopiridol: (1.0)^c
S1
  fold-resistance, flavopiridol: (1.0)^c
S1; read-out: IC50 of flavopiridol
  IC50: 96.1 ± 9.6 nM
HEK/ABCG2-G2
  fold-resistance, flavopiridol: (2.4)
HEK/ABCG2-T7
  fold-resistance, flavopiridol: (4.6)
HEK/ABCG2-R5
  fold-resistance, flavopiridol: (1.7)

## CC(=O)O[C@@]12CO[C@@H]1C[C@H](O)[C@@]1(C)C(=O)[C@H](O)C3=C(C)[C@@H](OC(=O)[C@H](O)[C@@H](NC(=O)OC(C)(C)C)c4ccccc4)C[C@@](O)([C@@H](OC(=O)c4ccccc4)[C@H]21)C3(C)C [Docetaxel, docetaxel]
[1]
  IC50 at 68 h: 64.8 ± 5.19 nM
HEK/MRP7
  fold-resistance, docetaxel: (11.31)
HEK 293-pcDNA-3.1; HEK 293-pcDNA-3.1, alone
  fold-resistance, docetaxel: (1.0)
HEK 293-pcDNA-3.1; read-out: IC50 of docetaxel
  IC50: 5.73 ± 0.65 nM

## O=C(Nc1cccc2c(=O)cc(-c3nn[nH]n3)oc12)c1ccc(OCCCCc2ccccc2)cc1 [ONO-1078]
HEK/MRP1 (ABCC1)
  fold reversal, vincristine: (5.9)
HEK293/pcDNA3.1
  fold reversal, vincristine: (1.33)
